From patent EP0626016B1, “[…] […]” (BRITISH TECHNOLOGY GROUP LIMITED, priority 1992, dated 1993)

Legend:
[1] = target: T1, Arthromyces ramosus peroxidase (Arthromyces ramosus, UniProt P28313); test: PBBA enhancement with different peroxidase enzymes (Example 4); type: biochemical
T1 sequence (P28313 21-364): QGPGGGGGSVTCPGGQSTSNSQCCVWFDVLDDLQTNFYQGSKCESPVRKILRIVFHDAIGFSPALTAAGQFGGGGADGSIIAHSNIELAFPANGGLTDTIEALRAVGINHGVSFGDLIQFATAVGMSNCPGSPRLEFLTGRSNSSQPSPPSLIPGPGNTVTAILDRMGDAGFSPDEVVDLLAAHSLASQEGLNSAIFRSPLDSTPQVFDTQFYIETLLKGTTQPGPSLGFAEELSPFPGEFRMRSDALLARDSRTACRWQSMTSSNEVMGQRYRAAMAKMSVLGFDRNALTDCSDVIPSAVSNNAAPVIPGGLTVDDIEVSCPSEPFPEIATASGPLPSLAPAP
Procedure: (§1) Stock solutions (1mg/ml in 0.1mol/l Tris buffer, pH 8.6) of horseradish peroxidase Type VII, Type VIII and Arthromyces ramosus peroxidase (Sigma) were prepared. The luminol-hydrogen peroxide reagent was prepared as described previously. Luminol-hydrogen peroxide reagent (100µl, 1:10 dilution), either 40µl of PBBA (0.01mg/ml in 0.1mol/l Tris buffer, pH 8.6) or as a control, 40µl of Tris buffer (0.1mol/l, pH 8.6), and 10µl of HRP Type VII (1:50,000 dilution, 2ng) were added to a cuvette. The reagents were mixed and the light emission was recorded after 5 minutes using a Berthold Biolumat LB9500C.
(§2) The above experiment was repeated and the HRP Type VII was replaced by HRP Type VIII (2ng) or Arthromyces ramosus peroxidase (20pg).

HRP [2] = target: T2, HRP (Armoracia rusticana, UniProt P00433); test: Effect of fixed PBBA on light output with varying amounts of HRP (Example 1, part 2); type: biochemical, horseradish; conditions: for Signal (with PBBA): 40µl of PBBA 0.01mg/ml, after 5 minutes; for Signal: Background ratio: with PBBA
T2 construct: purchased Sigma Chemical Co
T2 sequence (P00433 31-338): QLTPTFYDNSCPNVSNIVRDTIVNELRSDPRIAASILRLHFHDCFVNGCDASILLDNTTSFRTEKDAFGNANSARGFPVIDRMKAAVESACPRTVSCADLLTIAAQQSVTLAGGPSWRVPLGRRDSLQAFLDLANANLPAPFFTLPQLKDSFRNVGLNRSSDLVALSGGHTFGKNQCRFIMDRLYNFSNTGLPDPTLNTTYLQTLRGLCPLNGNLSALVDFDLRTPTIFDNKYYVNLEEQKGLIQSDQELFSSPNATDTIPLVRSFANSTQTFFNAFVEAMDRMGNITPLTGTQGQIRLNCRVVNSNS
Procedure: The above experiment was repeated this time keeping the amount of PBBA enhancer fixed and varying the amount of HRP. The reagents used were 100µl of luminol-hydrogen peroxide, either (a) 40µl of PBBA (0.01mg/ml in 0.lmol/l Tris buffer, pH 8.6) or (b) as a control, 40µl of Tris buffer (0.1mol/l, pH 8.6) and various amounts of HRP (range 5µl to 40µl of 1:50,000 dilution of a lmg/ml stock solution).
The reagents were mixed and light output recorded after 5 minutes on a Berthold Biolumat LB9500C. […] An improved signal:background ratio is shown by comparing results with HRP present with the zero HRP results.

[3] = target: T3, Anti-mouse IgG (whole molecule) peroxidase conjugate (Armoracia rusticana, UniProt P00433); test: Assay of peroxidase-antibody conjugate utilizing PBBA (Example 5); type: biochemical; conditions: for Signal (with PBBA): 40µl of PBBA 0.01 mg/ml; for Signal: Background: with PBBA
T3 sequence (P00433 31-338 limits assumed): T2 sequence (P00433 31-338)
Procedure: Anti-mouse IgG (whole molecule) peroxidase conjugate (Sigma Chemical Co.) was diluted (1:5000) in 0.1 mol/l Tris buffer (pH 8.6). The luminol-hydrogen peroxide was prepared as described previously. The following reagents were added to a cuvette: 100µl of luminol-hydrogen peroxide (1:10 dilution), either 40µl of PBBA (0.01 mg/ml in 0.1 mol/l Tris buffer) or as a control, 40µl of Tris buffer (0.1 mol/l, pH 8.6), and different amounts of anti-mouse IgG (5µl, 10µl, 20µl, 30µl, 40µl). The reagents were mixed and the light emission was measured using a Berthold Biolumat LB9500C.

HRP Type VIII = test: PBBA enhancement with different peroxidase enzymes (Example 4); type: biochemical, horseradish
Procedure: as §1, §2

HRP [4] = target: T2, HRP; test: Enhanced chemiluminescent anti-oxidant assay using PBBA (Example 6); type: biochemical, horseradish
Procedure: The luminol-peroxide reagent (100µl), PBBA (40µl, 1:100 dilution of 1 mg/ml) and HRP (10µl, 1:50,000 dilution of 1mg/ml stock) were mixed together and the light emission measured for 25 minutes. A sample of human serum (2µl, 1:10 dilution in 0.1 mol/l Tris buffer, pH 8.6) was added and the light emission measured for a further 75 minutes.

HRP Type VII = test: PBBA enhancement with different peroxidase enzymes (Example 4); type: biochemical, horseradish; conditions: for Signal Reagent with PBBA: 40µl of PBBA 0.01mg/ml
Procedure: Stock solutions (1mg/ml in 0.1mol/l Tris buffer, pH 8.6) of horseradish peroxidase Type VII, Type VIII and Arthromyces ramosus peroxidase (Sigma) were prepared. […] Luminol-hydrogen peroxide reagent (100µl, 1:10 dilution), either 40µl of PBBA (0.01mg/ml in 0.1mol/l Tris buffer, pH 8.6) or as a control, 40µl of Tris buffer (0.1mol/l, pH 8.6), and 10µl of HRP Type VII (1:50,000 dilution, 2ng) were added to a cuvette. The reagents were mixed and the light emission was recorded after 5 minutes using a Berthold Biolumat LB9500C.

[5] = in the presence of PBBA, result in words

OB(O)c1ccc(Br)cc1 [PBBA, para-bromophenylboronic acid]
Signal Reagent with PBBA ([1]; Arthromyces ramosus peroxidase 20pg, 40µl of PBBA 0.01mg/ml, after 5 minutes): 58,208 | Signal: Background ([1]; Arthromyces ramosus peroxidase, with PBBA): 2.1 | Signal (with PBBA) (HRP [2]; HRP 0 pg): 9,125 | Signal (with PBBA) (HRP [2]; HRP 100 pg): 15,861 | Signal: Background ratio (HRP [2]; HRP 100 pg): 1.7 | Signal (with PBBA) (HRP [2]; HRP 200 pg): 22,895 | Signal: Background ratio (HRP [2]; HRP 200 pg): 2.5 | Signal (with PBBA) (HRP [2]; HRP 400 pg): 38,495 | Signal: Background ratio (HRP [2]; HRP 400 pg): 4.2 | Signal (with PBBA) (HRP [2]; HRP 600 pg): 61,491 | Signal: Background ratio (HRP [2]; HRP 600 pg): 6.7 | Signal (with PBBA) (HRP [2]; HRP 800 pg): 105,972 | Signal: Background ratio (HRP [2]; HRP 800 pg): 11.6 | light output of the chemiluminescent reaction (HRP [2]; at all concentrations tested, result in words): increased the light output | Signal (with PBBA) ([3]; Anti-mouse IgG-HRP 0 (µl)): 18,832 | Signal (with PBBA) ([3]; Anti-mouse IgG-HRP 5 (µl), 1:5000 dilution): 27,665 | Signal: Background ([3]; Anti-mouse IgG-HRP 5 (µl)): 1.5 | Signal (with PBBA) ([3]; Anti-mouse IgG-HRP 10 (µl), 1:5000 dilution): 32,849 | Signal: Background ([3]; Anti-mouse IgG-HRP 10 (µl)): 1.7 | Signal (with PBBA) ([3]; Anti-mouse IgG-HRP 20 (µl), 1:5000 dilution): 68,994 | Signal: Background ([3]; Anti-mouse IgG-HRP 20 (µl)): 3.7 | Signal (with PBBA) ([3]; Anti-mouse IgG-HRP 30 (µl), 1:5000 dilution): 407,087 | Signal: Background ([3]; Anti-mouse IgG-HRP 30 (µl)): 21.6 | light emission [3, 5]: increased | signal to background ratio for the assay of the HRP conjugate [3, 5]: significantly improved | Signal Reagent with PBBA (HRP Type VIII; HRP Type VIII 2ng, 40µl of PBBA 0.01mg/ml, after 5 minutes): 156,204 | Signal: Background (HRP Type VIII; HRP Type VIII, with PBBA): 5.6 | Light units (HRP [4]; Time 0 minutes, before serum): 5 | Light units (HRP [4]; Time 10 minutes, before serum): 16 | Light units (HRP [4]; Time 20 minutes, before serum): 68 | Light units (HRP [4]; Time 25 minutes, serum added): 88 | Light units (HRP [4]; Time 26 minutes, after human serum added): 3 | Light units (HRP [4]; Time 30 minutes, after human serum added): 3 | Light units (HRP [4]; Time 50 minutes, after human serum added): 5 | Light units (HRP [4]; Time 60 minutes, after human serum added): 15 | Light units (HRP [4]; Time 70 minutes, after human serum added): 49 | Light units (HRP [4]; Time 80 minutes, after human serum added): 60 | Light units (HRP [4]; Time 90 minutes, after human serum added): 81 | Light units (HRP [4]; Time 100 minutes, after human serum added): 90 | lag after which the light emission returns to its original level (HRP [4]; after addition of human serum (2µl, 1:10 dilution)): 34 min | Signal Reagent with PBBA (HRP Type VII; Blank (no peroxidase)): 27,820 | Signal Reagent with PBBA (HRP Type VII; HRP Type VII 2ng, after 5 minutes): 49,703 | Signal: Background (HRP Type VII; HRP Type VII, with PBBA): 1.8 | level of light output (HRP Type VII; any of the peroxidases tested (HRP Type VII, Type VIII, Arthromyces ramosus peroxidase), result in words): did not increase the level of light output | signal to background ratio (HRP Type VII; in all cases (HRP Type VII, Type VIII, Arthromyces ramosus peroxidase), result in words): improved in all cases
